pIC50: −log10 of the molar value.
How the values were obtained:
[1] = molecular target: T1, Proteasome subunit beta type-8 (Homo sapiens, UniProt P28062); assay: Inhibition of human 20S proteasome beta 5i
T1 sequence (P28062 whole entry): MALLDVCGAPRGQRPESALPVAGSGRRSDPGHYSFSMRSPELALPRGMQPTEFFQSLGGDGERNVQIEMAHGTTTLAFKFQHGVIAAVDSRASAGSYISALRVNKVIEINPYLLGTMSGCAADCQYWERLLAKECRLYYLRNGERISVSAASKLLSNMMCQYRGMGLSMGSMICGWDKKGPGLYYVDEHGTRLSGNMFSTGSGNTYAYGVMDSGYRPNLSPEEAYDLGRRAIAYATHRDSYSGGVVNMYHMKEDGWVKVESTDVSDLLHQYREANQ

[2] = molecular target: T2, Proteasome Macropain subunit MB1 (Homo sapiens, UniProt P28074); assay: Inhibition of human 20S proteasome beta 5c
T2 sequence (P28074 whole entry): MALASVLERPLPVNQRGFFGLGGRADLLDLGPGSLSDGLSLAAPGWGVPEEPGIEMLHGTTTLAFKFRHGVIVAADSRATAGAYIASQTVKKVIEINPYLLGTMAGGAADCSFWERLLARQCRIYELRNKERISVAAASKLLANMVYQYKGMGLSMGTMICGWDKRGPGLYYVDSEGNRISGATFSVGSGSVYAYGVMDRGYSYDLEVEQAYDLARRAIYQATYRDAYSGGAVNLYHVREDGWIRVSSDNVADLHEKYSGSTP

Homo sapiens [3] = species: Homo sapiens; assay: Selectivity index, ratio of IC50 for human 20S proteasome beta 5c to IC50 for human 20S proteasome beta 5i
[4] = molecular target: T3, Proteasome subunit beta type-9 (Homo sapiens, UniProt P28065); assay: Inhibition of 20S proteasome beta 1i (unknown origin) after 1 hr by fluorescence based assay
T3 sequence (P28065 whole entry): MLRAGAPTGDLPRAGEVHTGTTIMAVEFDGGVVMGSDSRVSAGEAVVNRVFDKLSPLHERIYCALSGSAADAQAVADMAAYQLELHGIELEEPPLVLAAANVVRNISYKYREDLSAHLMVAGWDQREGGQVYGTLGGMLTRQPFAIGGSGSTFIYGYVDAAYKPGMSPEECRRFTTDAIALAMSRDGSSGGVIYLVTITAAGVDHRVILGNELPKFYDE

[5] = molecular target: T4, Proteasome subunit beta type-10 (Homo sapiens, UniProt P40306); assay: Inhibition of 20S proteasome beta 2i (unknown origin) after 1 hr by fluorescence based assay
T4 sequence (P40306 whole entry): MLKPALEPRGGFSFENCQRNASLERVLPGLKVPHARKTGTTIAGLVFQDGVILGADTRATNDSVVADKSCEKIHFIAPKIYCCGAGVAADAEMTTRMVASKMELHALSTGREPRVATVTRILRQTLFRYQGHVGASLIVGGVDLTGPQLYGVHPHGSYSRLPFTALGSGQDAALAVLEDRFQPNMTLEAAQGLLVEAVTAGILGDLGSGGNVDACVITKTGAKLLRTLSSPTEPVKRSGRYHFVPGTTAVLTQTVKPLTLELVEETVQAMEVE

[6] = molecular target: T2, Proteasome Macropain subunit MB1; assay: Inhibition of 20S proteasome beta 5c (unknown origin) after 1 hr by fluorescence based assay
[7] = molecular target: T1, Proteasome subunit beta type-8; assay: Inhibition of 20S proteasome beta 5i (unknown origin) after 1 hr by fluorescence based assay
Homo sapiens [8] = species: Homo sapiens; assay: Selectivity index, ratio of IC50 for 20S proteasome beta 5c (unknown origin) to IC50 for 20S proteasome beta 5i (unknown origin)
Homo sapiens [9] = species: Homo sapiens; assay: Selectivity index, ratio of IC50 for 20S proteasome beta 1c (unknown origin) to IC50 for 20S proteasome beta 1i (unknown origin)
[10] = molecular target: T1, Proteasome subunit beta type-8; assay: Inhibition of 20S proteasome beta 5i (unknown origin) after 1 hr by cell based assay
[11] = molecular target: T2, Proteasome Macropain subunit MB1; assay: Inhibition of 20S proteasome beta 5c (unknown origin) after 1 hr by cell based assay
[12] = molecular target: T3, Proteasome subunit beta type-9; assay: Inhibition of 20S proteasome beta 1i (unknown origin)
[13] = Inhibition of 20S proteasome beta 2c (unknown origin)
Homo sapiens [14] = species: Homo sapiens; assay: Selectivity index, ratio of IC50 for 20S proteasome beta 2c (unknown origin) to IC50 for 20S proteasome beta 2i (unknown origin)

SMILES: Cc1c(CCC(=O)ON2C(=O)CCC2=O)c(=O)oc2cc3occ(-c4ccccc4)c3cc12
- pIC50 [1]: 8.05
- pIC50 [2]: 6.66
- Ratio IC50 (Homo sapiens [3]): 24

SMILES: CC(C)C[C@H](NC(=O)[C@@H](NC(=O)c1cccc(-c2ccccc2)n1)[C@@H](C)O)B(O)O [DELANZOMIB]
- pIC50 [4]: 8.52 to 9.00
- pIC50 [5]: 7.52 to 8.00
- pIC50 [6]: 7.70 to 8.52
- pIC50 [7]: 7.70 to 8.52

SMILES: Cc1ccc(S(=O)(=O)N[C@@H](CC(=O)NC(C)(C)C)C(=O)NCCNC(=O)c2cc(-c3ccccc3F)ccc2F)cc1
- Ratio IC50 (Homo sapiens [8]): 28

SMILES: CC(C)(C)NC(=O)C[C@H](NS(=O)(=O)C1CC1)C(=O)NCCNC(=O)c1cc(-c2ccccc2F)ccc1F
- Ratio IC50 (Homo sapiens [8]): 64

SMILES: COc1ccc(C[C@H](NC(=O)[C@@H](C)NC(=O)[C@H]2CC[C@H](O)CC2)C(=O)N[C@@H](CC2=CCCC2)C(=O)[C@@]2(C)CO2)cc1
- Ratio IC50 (Homo sapiens [9]): > 14
- Ratio IC50 (Homo sapiens [8]): 79

SMILES: C[C@@H](CC(=O)NCc1cccc2ccccc12)NC(=O)[C@H](CC(=O)NC(C)(C)C)NC(=O)CCc1ccccc1
- Ratio IC50 (Homo sapiens [8]): 1330
- pIC50 [10]: 7.24
- pIC50 [11]: 4.12

SMILES: Cc1c(C2CCCC2)c(=O)oc2cc3occ(-c4ccccc4)c3cc12
- pIC50 [1]: 7.89
- pIC50 [2]: 5.97
- Ratio IC50 (Homo sapiens [3]): 83

SMILES: CC(C)C[C@H](NC(=O)CN1CCCCCC1)C(=O)N[C@@H](Cc1ccccc1)C(=O)N[C@@H](Cc1ccccc1)C(=O)[C@@]1(C)CO1
- Ratio IC50 (Homo sapiens [9]): > 602
- Ratio IC50 (Homo sapiens [8]): 0.8
- pIC50 [12]: 6.37
- pIC50 [13]: 7.09

SMILES: Cc1ccc(S(=O)(=O)N[C@H](CC(=O)N[C@@H](C)C(=O)NCc2cccc3ccccc23)CC(=O)NC(C)(C)C)cc1
- Ratio IC50 (Homo sapiens [8]): 5600
- pIC50 [10]: 7.85
- pIC50 [11]: 4.11

SMILES: Cc1c(Cc2nsc(=O)o2)c(=O)oc2cc3occ(-c4ccccc4)c3cc12
- pIC50 [1]: 6.92
- Ratio IC50 (Homo sapiens [3]): > 80

SMILES: Cc1ccc(S(=O)(=O)N[C@@H](CC(=O)NC(C)(C)C)C(=O)N[C@@H](C)CC(=O)NCc2cccc3ccccc23)cc1
- Ratio IC50 (Homo sapiens [8]): 13600
- pIC50 [10]: 8.26
- pIC50 [11]: 4.13

SMILES: Cc1c(CCC(=O)O)c(=O)oc2cc3occ(-c4ccccc4)c3cc12
- pIC50 [1]: 5.80
- pIC50 [2]: 3.76
- Ratio IC50 (Homo sapiens [3]): 108

SMILES: COc1ccc([C@@H](O)[C@H](NC(=O)[C@H](C)NC(=O)CN2CCOCC2)C(=O)N[C@@H](CC2=CCCC2)C(=O)[C@@]2(C)CO2)cc1 [ZETOMIPZOMIB]
- pIC50 [6]: 6.16
- pIC50 [7]: 7.41
- Ratio IC50 (Homo sapiens [9]): 0.97
- Ratio IC50 (Homo sapiens [14]): > 80.9
- Ratio IC50 (Homo sapiens [8]): 17.6

Source: ChEMBL document CHEMBL4402529, “Immunoproteasome-selective inhibitors: An overview of recent developments as potential drugs for hematologic malignancies and autoimmune diseases” (Eur J Med Chem, 2019)
